Test results published in patent US20160000071A1, “PHOTODEGRADABLE, BIOCOMPATIBLE AND EFFICIENT NANO-ENCAPSULATED FORMULATION” (priority 2014, published 2016).
Marks after values point to notes of the source that are not given here.

Key:
[1] = Photocatalytic degradation of indoxacarb under UV light; type: physicochemical
[2] = Photo degradation of indoxacarb in the batch reactor under natural light
[3] = system: newly-ecdysed fifth instar larvae of G. pyloalis; experiment: Leaf dip bioassay; type: in vivo, Glyphodes pyloalis Walker
Description: The insects used in the present application is Glyphodes pyloalis Walker (Lepidoptera: Pyralidae) which was collected from infested mulberry orchards in the vicinity of Rasht, Iran. Mass rearing of insects was carried out in the laboratory under controlled conditions at 25±1° C., 70±5% RH and 16:8 L:D. Newly-ecdysed fifth instar larvae of G. pyloalis were used for the bioassay experiments. The Glyphodes pyloalis Walker hereinafter is referred to as G. pyloalis.
The toxicity of the encapsulated imidacloprid diluted in water for the newly-ecdysed fifth instar larvae of G. pyloalis was evaluated using leaf dip bioassay. The technical imidacloprid was dissolved in acetone and diluted to generate 6 serial dilutions with distilled water. Mulberry leaf discs with diameters of 3.5 cm were prepared, so that each petiole was placed in a vial containing water for providing moisture to the leaf discs for several days. These discs were then immersed in the dilutions for 45 seconds. Mortality was assessed after the treated larvae were maintained at 25±1° C., 70±10 R.H. for 24, 48, 72, 96 and 120 hours.

COC(=O)N(C(=O)N1CO[C@@]2(C(=O)OC)Cc3cc(Cl)ccc3C2=N1)c1ccc(OC(F)(F)F)cc1 [Indoxacarb, lndoxacarb]
% degradation of indoxacarb ([1]; 10 ppm, 1 h): 2.3% | % degradation of indoxacarb ([1]; 10 ppm, 3 h): 7.44% | % degradation of indoxacarb ([1]; 10 ppm, 6 h): 10.26% | % degradation of indoxacarb ([1]; 10 ppm, 18 h): 13.07% | % degradation of indoxacarb ([1]; 20 ppm, 1 h): 6.24% | % degradation of indoxacarb ([1]; 20 ppm, 3 h): 12.49% | % degradation of indoxacarb ([1]; 20 ppm, 6 h): 18.9% | % degradation of indoxacarb ([1]; 20 ppm, 18 h): 22.03% | % degradation of indoxacarb ([1]; 30 ppm, 1 h): 9.32% | % degradation of indoxacarb ([1]; 30 ppm, 3 h): 13.07% | % degradation of indoxacarb ([1]; 30 ppm, 6 h): 23.34% | % degradation of indoxacarb ([1]; 30 ppm, 18 h): 25.21% | % degradation of indoxacarb ([1]; 40 ppm, 1 h): 11.47% | % degradation of indoxacarb ([1]; 40 ppm, 3 h): 15.04% | % degradation of indoxacarb ([1]; 40 ppm, 6 h): 24.26% | % degradation of indoxacarb ([1]; 40 ppm, 18 h): 25.39% | % degradation of indoxacarb ([1]; 50 ppm, 1 h): 9.23% | % degradation of indoxacarb ([1]; 50 ppm, 3 h): 13.34% | % degradation of indoxacarb ([1]; 50 ppm, 6 h): 21.02% | % degradation of indoxacarb ([1]; 50 ppm, 18 h): 21.02% | maximum amount of indoxacarb removed / degraded ([1]; after approximately 18 h, over all concentrations (10-50 ppm)): about 25% | % photo degradation of indoxacarb ([2]; 10 ppm, 2 d): 16.33% | % photo degradation of indoxacarb ([2]; 10 ppm, 4 d): 19.02% | % photo degradation of indoxacarb ([2]; 10 ppm, 6 d): 21.21% | % photo degradation of indoxacarb ([2]; 10 ppm, 8 d): 23.4% | % photo degradation of indoxacarb ([2]; 10 ppm, 10 d): 30.47% | % photo degradation of indoxacarb ([2]; 20 ppm, 2 d): 22.26% | % photo degradation of indoxacarb ([2]; 20 ppm, 4 d): 23.47% | % photo degradation of indoxacarb ([2]; 20 ppm, 6 d): 25.17% | % photo degradation of indoxacarb ([2]; 20 ppm, 8 d): 29.28% | % photo degradation of indoxacarb ([2]; 20 ppm, 10 d): 33.4% | % photo degradation of indoxacarb ([2]; 30 ppm, 2 d): 26.23% | % photo degradation of indoxacarb ([2]; 30 ppm, 4 d): 29.2% | % photo degradation of indoxacarb ([2]; 30 ppm, 6 d): 31.18% | % photo degradation of indoxacarb ([2]; 30 ppm, 8 d): 33.16% | % photo degradation of indoxacarb ([2]; 30 ppm, 10 d): 36.13% | % photo degradation of indoxacarb ([2]; 40 ppm, 2 d): 22.26% | % photo degradation of indoxacarb ([2]; 40 ppm, 4 d): 29.28% | % photo degradation of indoxacarb ([2]; 40 ppm, 6 d): 31.34% | % photo degradation of indoxacarb ([2]; 40 ppm, 8 d): 36.3% | % photo degradation of indoxacarb ([2]; 40 ppm, 10 d): 39.21% | % photo degradation of indoxacarb ([2]; 50 ppm, 2 d): 21.23% | % photo degradation of indoxacarb ([2]; 50 ppm, 4 d): 26.35% | % photo degradation of indoxacarb ([2]; 50 ppm, 6 d): 30.18% | % photo degradation of indoxacarb ([2]; 50 ppm, 8 d): 32.23% | % photo degradation of indoxacarb ([2]; 50 ppm, 10 d): 37.38% | % mortality ([3]; 0.25 ppm, 24 h after treatment): 21 ± 2.91^g % | % mortality ([3]; 0.25 ppm, 72 h after treatment): 56.4 ± 8.84^bcdef % | % mortality ([3]; 0.25 ppm, 96 h after treatment): 61 ± 8.73^bcdef % | % mortality ([3]; 0.25 ppm, 120 h after treatment): 62 ± 7.62^bcdef % | % mortality ([3]; 0.45 ppm, 24 h after treatment): 34 ± 10.29^efg % | % mortality ([3]; 0.45 ppm, 48 h after treatment): 47.9 ± 10^cdefg % | % mortality ([3]; 0.45 ppm, 72 h after treatment): 59 ± 19.97^bcdef % | % mortality ([3]; 0.45 ppm, 96 h after treatment): 63 ± 12.32^bcdef % | % mortality ([3]; 0.45 ppm, 120 h after treatment): 64 ± 12.67^bcdef % | % mortality ([3]; 0.82 ppm, 24 h after treatment): 34.32 ± 7.45^efg % | % mortality ([3]; 0.82 ppm, 48 h after treatment): 51.5 ± 9.25^cdefg % | % mortality ([3]; 0.82 ppm, 72 h after treatment): 63.58 ± 7.84^bcdef % | % mortality ([3]; 0.82 ppm, 96 h after treatment): 76 ± 2.73^abcd % | % mortality ([3]; 0.82 ppm, 120 h after treatment): 77 ± 2.23^abcd % | % mortality ([3]; 1.5 ppm, 24 h after treatment): 44.16 ± 8.22^defg % | % mortality ([3]; 1.5 ppm, 48 h after treatment): 62 ± 2.23^bcdef % | % mortality ([3]; 1.5 ppm, 72 h after treatment): 74.4 ± 2.58^abcd % | % mortality ([3]; 1.5 ppm, 96 h after treatment): 83 ± 2.23^abc % | % mortality ([3]; 1.5 ppm, 120 h after treatment): 83.6 ± 2.07^abc % | % mortality ([3]; 2.8 ppm, 24 h after treatment): 51.32 ± 8.9^cdefg % | % mortality ([3]; 2.8 ppm, 48 h after treatment): 68.82 ± 5.05^abcde % | % mortality ([3]; 2.8 ppm, 72 h after treatment): 76.66 ± 4.27^abcd % | % mortality ([3]; 2.8 ppm, 96 h after treatment): 88.32 ± 6.55^ab % | % mortality ([3]; 2.8 ppm, 120 h after treatment): 88.4 ± 6.57^ab % | % mortality ([3]; 4 ppm, 24 h after treatment): 55 ± 3.87^bcdefg % | % mortality ([3]; 4 ppm, 48 h after treatment): 71.98 ± 2.92^abcd % | % mortality ([3]; 4 ppm, 72 h after treatment): 88.32 ± 7.57^ab % | % mortality ([3]; 4 ppm, 96 h after treatment): 100% | % mortality ([3]; 4 ppm, 120 h after treatment): 100 ± 0^a %
